Experimental data taken from patent publication US20210177808A1, “INJECTABLE ISOXAZOLINE PHARMACEUTICAL COMPOSITIONS AND THEIR USE AGAINST PARASITE INFESTATION” (Intervet Inc., priority 2017, published 2021).

Test system: Ctenocephalides felis fleas
Assay: Flea efficacy on dogs approximately 6 months after treatment (Example 4B)
Assay type: in vivo
Experimental: The results from additional dose characterization studies are summarized. These studies evaluated three doses (10, 15 and 20 mg/kg) in adult dogs. The injectable suspension formulations of fluralaner were prepared is indicated in Example 1J above. One study tested the effectiveness against Rhipicephalus sanguineus ticks (see Table 7). A second study evaluated efficacy against fleas at approximately 6 months after treatment was tested in dogs (see Table 8).

With `Cc1cc(C2=NOC(c3cc(Cl)cc(Cl)c3)(C(F)(F)F)C2)ccc1C(=O)NCC(=O)NCC(F)(F)F` (centres unmarked) [fluralaner, 4-[5-(3,5-Dichlorophenyl)-5-trifluoromethyl-4,5-dihydroisoxazol-3-yl]-2-methyl-N-[(2,2,2-trifluoro-ethylcarbamoyl)-methyl]-benzamide] the “Effectiveness in reducing live fleas on dogs” value (all three doses (10, 15, 20 mg/kg), 6 months following treatment) was 100% and the “Predicted duration of efficacy against fleas” value (predicted because fleas are more sensitive to fluralaner than ticks) was 12 months.
